In patent publication US9663533B2, “Thieno[3,2-C]pyridin-4(5H)-ones as BET inhibitors” (GlaxoSmithKline LLC, priority 2012, dated 2017):
Where a name gives a salt, the structure may show the parent alone.

How the values were obtained:
[1] = tested on: Bromodomain BRD4, mutated proteins (BD1 or BD2); test: FP assay: affinity of the fluoroligand for mutated versus non-mutated binding domain; set-up: species or system Human; settings: single residue mutations in the acetyl lysine binding pocket
Protocol: (§1) Binding was assessed using a fluorescence polarisation binding assay. This utilises a 6 His purification tag at the N-terminal of the proteins as an epitope for an anti-6 His antibody labeled with Europium chelate (PerkinElmer AD0111) allowing binding of the Europium to the proteins which acts as the donor fluorophore. A small molecule, high affinity binder of the bromodomains BRD2, BRD3, BRD4 and BRDT has been labeled with Alexa Fluor647 (Reference Compound X) and this acts as the acceptor in the FRET pair.
The binding of the compounds of formula (I) to Bromodomain BRD4 was assessed using mutated proteins to detect differential binding to either Binding Domain 1 (BD1) or Binding Domain 2 (BD2) on the bromodomain. These single residue mutations in the acetyl lysine binding pocket greatly lower the affinity of the fluoroligand (Reference Compound X) for the mutated domain (>1000 fold selective for the non-mutated domain). Therefore in the final assay conditions, binding of the fluoroligand to the mutated domain cannot be detected and subsequently the assay is suitable to determine the binding of compounds to the single non-mutated bromodomain.
Protein Production: Recombinant Human Bromodomains [BRD4 (1-477) (Y97A) and (Y390A)] were expressed in E. coli cells (in pET15b vector) with a 6-His tag at the N-terminal. […]

[2] = tested on: Bromodomains BRD2, BRD3, BRD4 and BRDT, mutated proteins (BD1 or BD2); test: TR-FRET assay: affinity of the fluoroligand for mutated versus non-mutated binding domain; set-up: species or system Human; settings: single residue mutations in the acetyl lysine binding pocket
Protocol: as §1, with “time resolved fluorescent resonance energy transfer” for “fluorescence polarisation”
The binding of the compounds of formula (I) to Bromodomains BRD2, BRD3, BRD4 and BRDT was assessed using mutated proteins to detect differential binding to either Binding Domain 1 (BD1) or Binding Domain 2 (BD2) on the bromodomain. These single residue mutations in the acetyl lysine binding pocket greatly lower the affinity of the fluoroligand (Reference Compound X) for the mutated domain (>1000 fold selective for the non-mutated domain). Therefore in the final assay conditions, binding of the fluoroligand to the mutated domain cannot be detected and subsequently the assay is suitable to determine the binding of compounds to the single non-mutated bromodomain. […]

[3] = tested on: LPS induced IL-6 secretion from human whole blood; test: Quantification of LPS induced IL-6 secretion from human whole blood; assay type: cell-based; settings: LPS 200 ng/mL, 24 hours, MSD ELISA, read-out: pIC50, LPS induced IL-6 secretion (converted)
Description: Quantification of LPS Induced IL-6 Secretion from Human Whole Blood
Activation of monocytic cells by agonists of toll-like receptors such as bacterial lipopolysaccharide (LPS) leads to the activation of intracellular signaling pathways resulting in the production of key pro-inflammatory mediators including IL-6. Such pathways are widely considered to be central to the pathophysiology of a range of auto-immune and inflammatory disorders.
The impact of bromodomain inhibitors on IL-6 release was assessed in an LPS-stimulated human whole blood assay. Briefly, serial dilutions of test compounds were prepared in DMSO and 1 μL of the diluted compounds or vehicle (DMSO) was added to each well in a 96-well cell culture plate. Fresh blood was collected in heparinized tubes by venipuncture from volunteers with consent, and 130 uL/well was added in the culture plate already containing the compounds. The plates were then incubated for 30 min at 37° C. and 5% CO2 before the addition of 10 μl of 2.8 μg/mL LPS diluted in 1% BSA (LPS from Salmonella typhosa; Sigma L 6386 at a final concentration of 200 ng/mL). After further incubation for 24 hours at 37° C. and 5% CO2, 140 μl of PBS were added to each well. The plates were then sealed, shaken for 10 minutes and then centrifuged for 10 minutes at 2000 rpm. 100 μl of the supernatant were removed and IL-6 levels quantified using an MSD ELISA (MesoScale Discovery technology). Concentration response curves for each compound were generated and an IC50 values were calculated.

| Structure (SMILES) | Selectivity of the fluoroligand for the non-mutated domain over the mutated domain [1] | Selectivity of the fluoroligand for the non-mutated domain over the mutated domain [2] | IC50 [3] |
| --- | --- | --- | --- |
| COc1ccc2c(c1)C(c1ccc(Cl)cc1)=N[C@@H](CC(=O)NCCCCCNC(=O)CCCCCC1(C)/C(=C/C=C/C=C/C3=[N+](CCCCS(=O)(=O)O)c4ccc(S(=O)(=O)O)cc4C3(C)C)N(CCCCS(=O)(=O)[O-])c3ccc(S(=O)(=O)O)cc31)c1nnc(C)n1-2 (stereo partly drawn) [Reference Compound X] | > 1000 fold | > 1000 fold | – |
| CC(Oc1cncc(-c2cn(C)c(=O)c3cc(CN4CCN(S(C)(=O)=O)CC4)sc23)c1)c1ccccc1 (stereo not drawn) [Example 1, 5-methyl-2-((4-(methylsulphonyl)piperazin-1-yl)methyl)-7-(5-(1-phenylethoxy)pyridin-3-yl)thieno[3,2-c]pyridin-4(5H)-one hydrochloride] | – | – | ≤ 10 µM |
| Cn1cc(-c2ccnc(OCC3CCOCC3)c2)c2sc(CN3CCN(S(C)(=O)=O)CC3)cc2c1=O [Example 7, 5-methyl-2-((4-(methylsulphonyl)piperazin-1-yl)methyl)-7-(2-((tetrahydro-2H-pyran-4-yl)methoxy)pyridin-4-yl)thieno[3,2-c]pyridin-4(5H)-one] | – | – | ≤ 10 µM |
| CCCC[C@@H]1CN(Cc2cc3c(=O)n(C)cc(-c4ccc(OC)c(OC)c4)c3s2)CCN1 [Example 97, (R)-2-((3-butylpiperazin-1-yl)methyl)-7-(3,4-dimethoxyphenyl)-5-methylthieno[3,2-c]pyridin-4(5H)-one] | – | – | ≤ 10 µM |
| CN1CCCN(Cc2cc3c(=O)n(C)cc(-c4cccc(OCc5ccccc5)c4)c3s2)CC1 [Example 40, 7-(3-(benzyloxy)phenyl)-5-methyl-2-((4-methyl-1,4-diazepan-1-yl)methyl)thieno[3,2-c]pyridin-4(5H)-one, Hydrochloride] | – | – | ≤ 10 µM |
| C[C@@H]1CN(S(C)(=O)=O)CCN1Cc1cc2c(=O)n(C)cc(-c3ccncc3OCC3CC3)c2s1 [Example 168, (R)-7-(3-(cyclopropylmethoxy)pyridin-4-yl)-5-methyl-2-((2-methyl-4-(methylsulfonyl)piperazin-1-yl)methyl)thieno[3,2-c]pyridin-4(5H)-one] | – | – | ≤ 10 µM |
| CC(Oc1cncc(-c2cn(C)c(=O)c3cc(CN4CCN(S(C)(=O)=O)CC4)sc23)c1)c1ccccn1 (racemic) [Example 3, (±)-5-methyl-2-((4-(methylsulphonyl)piperazin-1-yl)methyl)-7-(5-(1-(pyridin-2-yl)ethoxy)pyridin-3-yl)thieno[3,2-c]pyridin-4(5H)-one] | – | – | ≤ 10 µM |
| CC(=O)Nc1cc(-c2cn(C)c(=O)c3cc(CN4CCN(S(C)(=O)=O)C[C@H]4C)sc23)ccn1 [Example 119, (R)-N-(4-(5-methyl-2-((2-methyl-4-(methylsulphonyl)piperazin-1-yl)methyl)-4-oxo-4,5-dihydrothieno[3,2-c]pyridin-7-yl)pyridin-2-yl)acetamide] | – | – | ≤ 10 µM |
